The values that follow come from patent publication US20240207264A1, “PHARMACEUTICAL COMPOSITIONS COMPRISING INHIBITORS OF THE ANDROGEN RECEPTOR AND USES THEREOF” (ESSA PHARMA INC., priority 2021, published 2024).

Series [1] in a line: Gastric-to-intestinal buffer (G-IB) transfer dissolution test. Format: physicochemical. The settings on record: 0.5% SIF in PBS pH 6.5, dose 150 μgA/mL. The protocol:
Dissolution: The crystalline Compound A and the five SDD compositions (A-E from Example 4) is were tested in a 2-stage dissolution test designed to evaluate dissolution rate as well as inhibition of crystallization on transfer from simulated gastric to simulated intestinal media. Additionally, SDD composition E was also tested with additional HPMCAS-HF powder at a ratio of 1:1 SDD/HPMCAS-HF (SDD composition F).
For the gastric-to-intestinal buffer (G-IB) transfer dissolution test, pH 2 (“gastric”) media was added to each sample at a target dose concentration of 300 μgA/mL. After 30 minutes of exposure to gastric media, concentrated simulated intestinal buffer (TB) is added to reach a final composition of 0.5% SIF in PBS, pH 6.5 at half the dose concentration (150 μgA/mL). The concentration was monitored by U fiber optic probes in situ as well as being assessed by either microcentrifugation (15,800×g) or ultracentrifugation (380,000×g).
The microcentrifuge separates the precipitate (undissolved drug) and total solubilized drug Total solubilized drug consists of three solubilized species: freely solubilized drug (“free drug”), drug associated with bile salt micelles (“micelle bound drug”), and drug in small aggregate roughly 50-300 nm in size (“colloidal drug”). The ultracentrifuge further separates the colloidal drug and the supernatant contains only free drug and micelle bound drug. […]

The nature of series [2]: Amorphous solubility by slow addition from organic stock, UV/scattering detection. The settings on record: for solubility: kinetic from dmso stock. Format: physicochemical. The text has this: Solubility: Generally, the solubility of an amorphous form is higher than that of the corresponding crystal form, due to the lack of crystalline lattice forces in the amorphous state. Solubility of the amorphous form of Compound A was studied by slow addition of the amorphous form from an organic stock solution into the pH 6.5 phosphate-buffered saline (PBS) solution or 0.5% wt simulated intestinal fluid (SIF) in pH 6.5 PBS. When the amorphous solubility is reached, a drug-rich phase forms which typically scatters light (e.g., liquid-liquid phase separation or LLPS), which can be detected by scattering of UV/Visible light and/or by dynamic light scattering (DLS).
No scattering event prior to crystallization was observed.

For series [3], the system named is PC-3. Briefly: PC-3 prostate cancer xenograft model. Type of series: in vivo. The settings on record: PC-3 (non functional AR), intact male mice, 15 mg/kg, Solution, qd28. The protocol: (§1) Compound A's activity was measured in a variety of castrate-sensitive and castrate-resistant prostate cancer (CRPC) xenograft models (Table 32).
In series [4] the test system is LNCaP. Put plainly: LNCaP prostate cancer xenograft model. Format: in vivo. The settings on record: LNCaP (AR FL), castrated male mice, 30 mg/kg, Solution, qd24. The protocol: as §1
Series [5] relates to LNCaP95. Briefly: LNCaP95 prostate cancer xenograft model. Format: in vivo. The settings on record: LNCaP95 (high level AR-V7), castrated male mice, 15 mg/kg, Solution, qd24. The protocol: as §1
Series [6] has as its system HID28. Put plainly: Enzalutamide resistant patient-derived xenograft (PDX) model HID28. Type of series: in vivo, nude mice. The settings on record: HID28 PDX (AR+ PSA+), castrated male mice, 15 mg/kg, Solution, qd28. The protocol: as §1
For example, intact male nude mice were engrafted with HID28 tumor fragments and once tumors reached ˜150 mm^3 the mice were castrated. The mice were enrolled in the experiment once the tumors started to regrow, 10 days post-castration. Compound A was tested in the HID28 PDX model at 60 mg/kg, QD for 28 days using SDD formulation with HPMCAS-H in 0.5% Methocel A4M in water.
Mean tumor volume in castrated nude mice bearing enzalutamide resistant patient-derived xenograft (PDX) model HID28 was measured after oral treatment with solid dispersion composition of Compound A or enzalutamide for 28 days (n=6-7 per group) is shown in FIG. 16B.

In series [7] the test system is VCaP tumors. Put plainly: VCaP prostate cancer xenograft model. The settings on record: VCaP (amplified AR, some AR-V7), castrated male mice, 15 mg/kg, Solution, qd24. Type of series: in vivo, SCID Beige male mice.

Broadly, the solubility is the dissolved amount per volume that the medium holds.

As to `CC(C)(c1ccc(OCc2ccnc(NS(C)(=O)=O)n2)cc1)c1cc(Cl)c(OCCCl)c(C#N)c1` [Crystalline Compound A, N-(4-((4-(2-(3-chloro-4-(2-chloroethoxy)-5-cyanophenyl)propan-2-yl)phenoxy)methyl)pyrimidin-2-yl)methanesulfonamide], the “Concentration, IB (90 min)” value in series [1] was 7 μgA/mL.

In the case of `CC(C)(c1ccc(OCc2ccnc(NS(C)(=O)=O)n2)cc1)c1cc(Cl)c(OCCCl)c(C#N)c1` [amorphous form of Compound A, N-(4-((4-(2-(3-chloro-4-(2-chloroethoxy)-5-cyanophenyl)propan-2-yl)phenoxy)methyl)pyrimidin-2-yl)methanesulfonamide], the solubility in series [2] (0.5% wt simulated intestinal fluid (SIF) in pH 6.5 PBS, fassgf or other biorelevant, 0.5% SIF (pH 6.5)) is over 25 µg/mL; in series [2] (pH 6.5 phosphate-buffered saline (PBS), aqueous buffer, pH 6.5 PBS) it was over 2.5 µg/mL. Besides, the “amorphous solubility relative to crystalline solubility” value in series [2] (simulated intestinal media) is on record as “at least 20 ×”.

Consider `CNC(=O)c1ccc(N2C(=S)N(c3ccc(C#N)c(C(F)(F)F)c3)C(=O)C2(C)C)cc1F` [Enzalutamide, enzalutamide, reference compound], for which the “TGI (Tumor Growth Inhibition)” value is 0% in series [3]; over 100% in series [4]; under 0% in series [5]; under 0% in series [6]; 66% in series [7].
